Source: ChEMBL document CHEMBL3991601, “The target landscape of clinical kinase drugs” (Science, 2017)
Calls of active or inactive are those of the source. Rule as the data show it, for most assays here: actives have a measured Kd and inactives only a lower limit.

Columns and labels:
[1] = biological target: T1, Peroxisomal acyl-coenzyme A oxidase 1 (Homo sapiens, UniProt Q15067)
T1 sequence (Q15067 whole entry): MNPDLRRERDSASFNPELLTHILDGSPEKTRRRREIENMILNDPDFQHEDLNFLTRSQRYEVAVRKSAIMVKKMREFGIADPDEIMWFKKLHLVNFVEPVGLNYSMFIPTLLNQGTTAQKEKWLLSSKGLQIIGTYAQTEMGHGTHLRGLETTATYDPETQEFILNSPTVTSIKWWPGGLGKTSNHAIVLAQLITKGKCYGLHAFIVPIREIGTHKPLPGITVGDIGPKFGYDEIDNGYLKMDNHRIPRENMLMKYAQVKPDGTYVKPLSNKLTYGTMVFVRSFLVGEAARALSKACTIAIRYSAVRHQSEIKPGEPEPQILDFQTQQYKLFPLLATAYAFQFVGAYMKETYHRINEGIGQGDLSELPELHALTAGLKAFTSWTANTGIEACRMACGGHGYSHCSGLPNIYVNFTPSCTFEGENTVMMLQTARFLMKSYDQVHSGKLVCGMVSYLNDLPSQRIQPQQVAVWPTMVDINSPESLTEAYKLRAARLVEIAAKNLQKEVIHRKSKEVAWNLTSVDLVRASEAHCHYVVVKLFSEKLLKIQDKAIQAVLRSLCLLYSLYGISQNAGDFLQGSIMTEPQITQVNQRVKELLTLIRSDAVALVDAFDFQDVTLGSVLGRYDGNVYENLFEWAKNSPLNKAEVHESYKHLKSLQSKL

[2] = biological target: T2, Beta-adrenergic receptor kinase 1 (Homo sapiens, UniProt P25098)
T2 sequence (P25098 whole entry): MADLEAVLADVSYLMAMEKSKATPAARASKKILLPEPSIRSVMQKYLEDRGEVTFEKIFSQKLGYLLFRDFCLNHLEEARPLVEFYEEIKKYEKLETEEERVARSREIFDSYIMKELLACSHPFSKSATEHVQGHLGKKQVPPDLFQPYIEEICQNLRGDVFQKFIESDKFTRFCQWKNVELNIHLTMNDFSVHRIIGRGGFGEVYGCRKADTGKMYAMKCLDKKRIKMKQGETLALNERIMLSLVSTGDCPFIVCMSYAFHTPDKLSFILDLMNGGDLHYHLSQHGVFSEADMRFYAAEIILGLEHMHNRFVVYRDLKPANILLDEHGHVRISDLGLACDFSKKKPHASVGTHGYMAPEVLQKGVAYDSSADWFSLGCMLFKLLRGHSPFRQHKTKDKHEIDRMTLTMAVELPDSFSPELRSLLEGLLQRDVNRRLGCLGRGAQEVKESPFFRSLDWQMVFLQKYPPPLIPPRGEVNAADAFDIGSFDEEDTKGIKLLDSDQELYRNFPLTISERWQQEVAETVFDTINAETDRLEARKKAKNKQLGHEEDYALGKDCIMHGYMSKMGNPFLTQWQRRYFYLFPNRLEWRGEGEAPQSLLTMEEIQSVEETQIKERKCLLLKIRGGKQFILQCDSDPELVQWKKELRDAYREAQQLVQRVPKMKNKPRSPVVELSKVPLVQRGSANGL

[3] = biological target: T3, Discoidin domain-containing receptor 2 (Homo sapiens, UniProt Q16832)
T3 sequence (Q16832 whole entry): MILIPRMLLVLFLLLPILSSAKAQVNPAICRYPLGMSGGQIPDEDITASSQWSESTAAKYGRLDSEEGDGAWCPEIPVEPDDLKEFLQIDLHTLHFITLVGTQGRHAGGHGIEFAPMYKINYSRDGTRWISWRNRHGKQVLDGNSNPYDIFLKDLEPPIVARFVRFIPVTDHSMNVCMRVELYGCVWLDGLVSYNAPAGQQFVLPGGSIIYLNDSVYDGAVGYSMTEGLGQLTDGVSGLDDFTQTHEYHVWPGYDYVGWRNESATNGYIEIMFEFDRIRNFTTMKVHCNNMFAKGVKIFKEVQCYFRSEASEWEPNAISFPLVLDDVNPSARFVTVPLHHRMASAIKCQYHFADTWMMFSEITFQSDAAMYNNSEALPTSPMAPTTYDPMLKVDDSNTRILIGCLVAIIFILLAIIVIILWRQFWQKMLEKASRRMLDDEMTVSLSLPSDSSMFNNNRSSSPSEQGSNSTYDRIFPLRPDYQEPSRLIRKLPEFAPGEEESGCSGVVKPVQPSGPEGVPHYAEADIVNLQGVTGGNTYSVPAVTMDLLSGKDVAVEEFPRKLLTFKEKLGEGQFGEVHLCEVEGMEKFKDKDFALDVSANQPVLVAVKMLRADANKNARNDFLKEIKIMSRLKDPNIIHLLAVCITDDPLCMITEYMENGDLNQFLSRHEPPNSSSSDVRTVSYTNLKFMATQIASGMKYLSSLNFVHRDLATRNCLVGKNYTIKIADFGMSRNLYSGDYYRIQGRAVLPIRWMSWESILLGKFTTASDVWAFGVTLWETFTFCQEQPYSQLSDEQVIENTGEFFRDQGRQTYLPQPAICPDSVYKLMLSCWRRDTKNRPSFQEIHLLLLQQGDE

[4] = biological target: Tyrosine-protein kinase JAK1 (Homo sapiens, UniProt P23458)
Sequence of Tyrosine-protein kinase JAK1 (P23458 whole entry): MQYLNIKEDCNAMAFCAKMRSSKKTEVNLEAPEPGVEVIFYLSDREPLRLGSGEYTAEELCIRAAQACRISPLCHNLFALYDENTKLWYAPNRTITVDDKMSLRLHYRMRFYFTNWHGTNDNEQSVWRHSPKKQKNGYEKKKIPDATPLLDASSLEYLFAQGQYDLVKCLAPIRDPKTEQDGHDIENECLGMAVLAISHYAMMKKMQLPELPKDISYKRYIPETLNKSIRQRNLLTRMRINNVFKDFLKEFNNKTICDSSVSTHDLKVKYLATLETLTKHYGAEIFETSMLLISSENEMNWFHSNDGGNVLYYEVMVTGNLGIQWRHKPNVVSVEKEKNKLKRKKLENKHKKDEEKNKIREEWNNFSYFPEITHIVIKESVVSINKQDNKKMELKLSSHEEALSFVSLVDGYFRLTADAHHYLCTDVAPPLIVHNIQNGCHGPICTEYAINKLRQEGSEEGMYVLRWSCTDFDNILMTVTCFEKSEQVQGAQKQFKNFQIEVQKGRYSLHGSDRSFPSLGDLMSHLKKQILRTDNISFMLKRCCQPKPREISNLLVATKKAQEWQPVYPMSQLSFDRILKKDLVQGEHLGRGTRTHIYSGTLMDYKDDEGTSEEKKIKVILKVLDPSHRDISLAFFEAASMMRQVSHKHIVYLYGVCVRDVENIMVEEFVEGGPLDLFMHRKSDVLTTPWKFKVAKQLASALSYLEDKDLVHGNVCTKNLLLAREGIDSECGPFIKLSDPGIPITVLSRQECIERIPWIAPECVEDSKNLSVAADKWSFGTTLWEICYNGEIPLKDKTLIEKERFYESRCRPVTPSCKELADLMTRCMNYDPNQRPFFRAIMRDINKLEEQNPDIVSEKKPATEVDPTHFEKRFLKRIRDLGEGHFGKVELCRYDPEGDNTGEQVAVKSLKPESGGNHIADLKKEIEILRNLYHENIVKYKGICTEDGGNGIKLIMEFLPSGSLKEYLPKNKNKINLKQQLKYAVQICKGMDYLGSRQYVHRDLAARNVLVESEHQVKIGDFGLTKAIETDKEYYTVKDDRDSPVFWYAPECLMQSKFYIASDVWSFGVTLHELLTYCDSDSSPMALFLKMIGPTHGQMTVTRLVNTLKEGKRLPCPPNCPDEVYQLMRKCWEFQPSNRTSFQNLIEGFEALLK

[5] = biological target: Serine/threonine-protein kinase PAK 4 (Homo sapiens, UniProt O96013)
Sequence of Serine/threonine-protein kinase PAK 4 (O96013 whole entry): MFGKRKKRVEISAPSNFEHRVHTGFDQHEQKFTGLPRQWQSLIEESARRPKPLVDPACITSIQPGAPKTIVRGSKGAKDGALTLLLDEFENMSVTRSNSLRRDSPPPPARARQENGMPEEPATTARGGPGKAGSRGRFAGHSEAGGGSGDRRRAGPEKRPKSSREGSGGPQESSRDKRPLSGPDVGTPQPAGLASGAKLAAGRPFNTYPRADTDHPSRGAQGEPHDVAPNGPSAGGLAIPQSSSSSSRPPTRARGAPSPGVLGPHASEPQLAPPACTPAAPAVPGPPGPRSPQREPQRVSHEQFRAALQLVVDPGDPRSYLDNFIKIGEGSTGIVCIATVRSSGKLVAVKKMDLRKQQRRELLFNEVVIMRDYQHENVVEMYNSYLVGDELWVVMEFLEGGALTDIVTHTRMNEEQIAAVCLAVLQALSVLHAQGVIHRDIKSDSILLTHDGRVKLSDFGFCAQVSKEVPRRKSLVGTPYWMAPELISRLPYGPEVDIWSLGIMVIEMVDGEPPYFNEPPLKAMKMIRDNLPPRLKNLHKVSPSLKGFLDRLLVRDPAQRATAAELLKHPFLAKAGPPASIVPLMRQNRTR
Also: in the data inactive means no Kd found up to 30 µM.

Compound | Kd [1] | Kd [2] | Kd [3] | Kd [4] | Kd [5]
FC(F)(F)c1ccc(CNc2ccc(Cc3c[nH]c4ncc(Cl)cc34)cn2)cn1 [PEXIDARTINIB] | > 30 µM (inactive) | > 30 µM (inactive) | > 30 µM (inactive) | > 30 µM (inactive) | > 30 µM (inactive)
CC(C)CC(=O)Nc1[nH]nc2c1CN(C(=O)C1CCN(C)CC1)C2(C)C [PHA-793887] | > 30 µM (inactive) | > 30 µM (inactive) | > 30 µM (inactive) | > 30 µM (inactive) | 0.864 µM (active)
O=C(NC[C@H](O)CO)c1ccncc1Nc1ccc(I)cc1F [PIMASERTIB] | > 30 µM (inactive) | > 30 µM (inactive) | > 30 µM (inactive) | > 30 µM (inactive) | > 30 µM (inactive)
COCCN1CCN(Cc2ccc(-c3n[nH]c4c3C(=O)c3c(NC(=O)NN5CCOCC5)cccc3-4)cc2)CC1 [RGB-286638] | > 30 µM (inactive) | > 30 µM (inactive) | > 30 µM (inactive) | 0.139 µM (active) | > 30 µM (inactive)
C=CC(=O)Nc1cccc(Nc2nc(Nc3ccc(N4CCN(C(C)=O)CC4)cc3OC)ncc2C(F)(F)F)c1 [ROCILETINIB] | > 30 µM (inactive) | > 30 µM (inactive) | > 30 µM (inactive) | > 30 µM (inactive) | > 30 µM (inactive)
O[C@H]1CC[C@H](Nc2ncc3nc(Nc4c(F)cc(F)cc4F)n([C@H]4CCOC4)c3n2)CC1 [TANZISERTIB] | > 30 µM (inactive) | > 30 µM (inactive) | > 30 µM (inactive) | > 30 µM (inactive) | > 30 µM (inactive)
CNC(=O)c1cc(COc2nnc(Nc3ccc(Cl)cc3)c3ccoc23)ccn1 [TELATINIB] | > 30 µM (inactive) | > 30 µM (inactive) | > 30 µM (inactive) | > 30 µM (inactive) | > 30 µM (inactive)
Cc1cc(-c2cc(OC(=O)c3ccccc3)ccc2Cl)cc2nnc(Nc3ccc(OCCN4CCCC4)cc3)nc12 [TG100-801] | > 30 µM (inactive) | > 30 µM (inactive) | > 30 µM (inactive) | > 30 µM (inactive) | > 30 µM (inactive)
C[C@@H]1COC(Nc2ccc3ncnc(Nc4ccc(OCc5nccs5)c(Cl)c4)c3c2)=N1 [VARLITINIB] | > 30 µM (inactive) | > 30 µM (inactive) | > 30 µM (inactive) | > 30 µM (inactive) | > 30 µM (inactive)
CNC(=O)c1cccc(-c2ccc3c(N4CCOC[C@@H]4C)nc(N4CCOC[C@@H]4C)nc3n2)c1 [VISTUSERTIB] | > 30 µM (inactive) | > 30 µM (inactive) | > 30 µM (inactive) | > 30 µM (inactive) | > 30 µM (inactive)
NC(=O)c1ccc(N(C(N)=O)c2c(F)cccc2F)nc1-c1ccc(F)cc1F [VX-702] | > 30 µM (inactive) | > 30 µM (inactive) | > 30 µM (inactive) | > 30 µM (inactive) | > 30 µM (inactive)
COc1cc2ncnc(Nc3ccc(O)cc3)c2cc1OC [WHI-P131] | > 30 µM (inactive) | > 30 µM (inactive) | > 30 µM (inactive) | > 30 µM (inactive) | > 30 µM (inactive)

Other lines, results leading:

Kd [1] | Kd [2] | Kd [3] | Kd [4] | Kd [5] | Compound
> 30 µM (inactive) | > 30 µM (inactive) | > 30 µM (inactive) | > 30 µM (inactive) | > 30 µM (inactive) | CC(C)(O)CC(=O)NCCn1ccc2ncnc(Nc3ccc(Oc4cccc(C(F)(F)F)c4)c(Cl)c3)c21 [TAK-285]
> 30 µM (inactive) | > 30 µM (inactive) | > 30 µM (inactive) | > 30 µM (inactive) | > 30 µM (inactive) | Cn1c(=O)c(F)c(Nc2ccc(I)cc2F)c2c(=O)n(C[C@@H](O)CO)cnc21 [TAK-733]
